The values below are quoted from earlier work in patent publication US8940662B2, “Methods for controlling pests” (BASF Corporation, priority 2009, dated 2015).

One series has as its system termites. As to conditions: general statement.
Another series relates to ants. As to conditions: general statement.

With `N#Cc1nn(-c2c(Cl)cc(C(F)(F)F)cc2Cl)c(N)c1[S+]([O-])C(F)(F)F` (racemic) [fipronil, (±)-5-amino-1-(2,6-dichloro-α,α,α-trifluoro-p-tolyl)-4-trifluoromethylsulfinylpyrazole-3-carbonitrile], the “Toxic dose to termites” value with termites is on record as 2 nanograms per termite. Moreover, the “Toxic dose to ants” value in the series on ants was “about 1 nanogram per ant”.
